From patent publication US20250144187A1, “COMBINATION OF HYDROLASES AND ANTI-MICROORGANISM DRUGS AND USES THEREOF” (CENTRE FOR EYE AND VISION RESEARCH LIMITED, priority 2023, published 2025)

Columns and labels:
[1] = tested on: MRSA; experiment: HADA-based synthesis of nascent cell wall; design: species or system Staphylococcus aureus; conditions: cefdinir alone or combination with lysozyme, 2 hours
Description: 8) Synthesis and digestion of cell wait. According to the reported method [Kuru E et al., ACS Chem Biol 14, 2745-2756 (2019)], over-night cultured MRSA was inoculated into LB medium and cultured at 37° C. with shaking at 250 rpm until when its OD600 reached 0.6. Then, these mid-log-phase MRSA was treated with cefdinir (0.5 μg/ml), lysozyme (0.5 mg/ml) alone or their combination. Those treated with mezlocillin (1.0 μg/ml) and without any treatment served as antibiotic-control and untreated group, respectively. Meanwhile, MRSA suspension in control group was further divided into two groups. i.e., control group and no drug group, Next, 10 μM HCC-Amino-D-alanine (HADA) was added into all samples except those in no drug group, in which HADA was replaced by PBS. After 2- or 4-hour incubation, all bacteria were collected by centrifugation at 3220 g for 10 minutes and then washed by cold PBS for 3 times to remove redundant HADA.

[2] = tested on: MRSA; experiment: High-throughput screening of 1953 FDA-approved compounds with human lysozyme; assay type: cell-based, Staphylococcus aureus; conditions: compound 25 μM + 1 mg/ml lysozyme, 24-hour
Description: 1) High-throughput screening. According to standard screening method [Zhong. […] Commun. 11, 523 (2020)], 1953 FDA-approved compounds from our drugs library at a fixed concentrations of 25 μM were screened against methicillin-resistant Staphylococcus aureus (MRSA) and Staphylococcus epidermis (a coagulase negative Staphylococci, MRSE), in combination with human lysozyme. Specifically, these compounds were added into bacterial suspensions (1×10^5 CFU/ml, in LB medium) in the absence or presence of 1 mg/ml lysozyme. LB medium without bacteria served as background group. Then, the real-time growth curvet of MRSA were monitored per hour and for 24 hours. Absorbance at 600 am (OD600) of bacterial culture at the time point of 24-hour was also measured. The inhibition ratio (%) was calculated as (ODcontrol−ODsample)/(ODcontrol−ODbackground)×100%. […] Herein, the relative and apparent inhibition ratios indicated the combination effect and potential toxicity of compound, respectively. Synergy effect was defined as the relative inhibition ratio of ≥90%. All assays were performed in triplicate.

[3] = tested on: MRSA in ARPE-19 cells; experiment: Cell-based infection model, cefdinir/lysozyme; conditions: 0.25 μg/ml cefdinir combined with 0.5 mg/ml lysozyme
[4] = tested on: MRSA; experiment: ATP, NAD+/NADH and pyruvate levels, tedizolid phosphate/lysozyme; assay type: cell-based, Staphylococcus aureus; conditions: combination therapy for 1 hour
Description: 13) ATP, NAD^+/NADH and pyruvate levels. According to the described method [Liu. Y et al., Adv. Sci. 7, 1902227(2020)], mid-log-phase MRSA with the OD600 of 0.4 to 0.6 was treated with lysozyme, tedizolid phosphate or their combination at different concentrations. Those without any treatment served as control group. After 1 hour incubation at 37° C. all bacteria we collected and then washed by cold PBS for 3 times. […] Then, 75 μl of each supernatant was incubated 25 μl of reaction I, followed by continuous incubation with 125 μl of reaction II. By recording the absorbance at 520 mu, the pyruvate level in each sample was figured out according to the standard formula. The intensity in control group was defined as 100% and others were normalized.
Then, 20 si of each supernatant was added white 96-well plate pre-reactivated by 100 μl of ATP test solution (Beyotime Biotechnology, China), followed by luminometer measurement [Liu, Y et al., Adv. Sci 7, 1902227 (2020)]. To analyze the intracellular NAD^+ and NADH levels [Xue, C et al., Front. Pharmacol. 12, 600296 (2021)], each lysis supernatant was divided into two tubes. One tube was heated at 60° C. for 30 minutes in PCR machine to decompose NAD^+ if had. Then, this tube was further centrifuged at 18,000 g at 4° C. for 20 minutes to collect the supernatant. After that, 20 μl of supernatant from heated or unheated group was added white 96-well plate pre-reactivated by 90 μl/well of alcohol dehydrogenase solution (Beyotime Biotechnology, China) for 10 minutes incubation at 37° C. in the prevention of light, Next, 10 μl of staining solution (Beyotime Biotechnology, China) was added to react with product in previous reaction. After 30 minutes at 37° C. in the prevention of light, orange formazan was observed and then the absorbance at 450 nm was recorded. Intensities of those […] heat treatment indicated the levels of NADH+NAD^+ and NADH itself, respectively. Finally, according to the standard formula, the intracellular levels of NAD^+, NADH and their ratio were figured out. All results were expressed as average±SD. […]

[5] = tested on: MRSA in ARPE-19 cells; experiment: Cell infection model, tedizolid phosphate/lysozyme

SMILES | reduction in HADA signal intensity from nascent cell wall [1] [%] | Growth inhibition ratio (mean ± SD, %) MRSA [2] [%] | drop of bacterial load in infected ARPE-19 cells [3] | bacterial load in infected ARPE-19 cells ([3]; MOI 50) | decrease in the level of pyruvate [4] [%] | level of ATP [4] | ratio of NAD+/NADH ([4]; increased from 8.84±1.89) | death of infected ARPE-19 cells ([5]; 1.0 μg/ml tedizolid phosphate + 0.5 mg/ml lysozyme, MOI 10) | bacterial load in ARPE-19 cells ([5]; ≥1.0 μg/ml tedizolid phosphate in the presence of 0.5 mg/ml lysozyme, reduced from 10^7)
C=CC1=C(C(=O)O)N2C(=O)[C@@H](NC(=O)/C(=N\O)c3csc(N)n3)[C@H]2SC1 [cefdinir, Cefdinir] | ~40 | 85.21 ± 9.84 | 10^2 fold | 10^3 CFU/ml |  |  |  |  | 
Cn1nnc(-c2ccc(-c3ccc(N4C[C@H](COP(=O)(O)O)OC4=O)cc3F)cn2)n1 [tedizolid phosphate, Tedizolid Phosphate] |  |  |  |  | > 40 | higher levels of ATP | 18.43±4.42 | cell death was prevented | 10^4 CFU/ml
